Data on 35 compounds can be found in patent US20250221979A1, “NOVEL HETEROCYCLIC COMPOUND” (SHOUYAO HOLDINGS (BEIJING) CO., LTD., priority 2022, published 2025).

The target of this assay is human MAT2A enzyme (Homo sapiens (Human), UniProt P31153). The experiment in a line: In vitro enzymatic inhibition activity assay on MAT2A (PiColorLock phosphate detection). In kind it is biochemical. Particulars: purified human MAT2A 10 nM, ATP 50 μM, L-methionine 100 μM, 6 h at 23° C.; read-out: MAT2A inhibitory activity IC50. In outline: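 IC50 came from an 8-point, 10-fold compound series that reduced phosphate release, measured by absorbance at 630 nm. Reactions ran 6 h at 23 °C with 10 nM human MAT2A, 50 μM ATP and 100 μM L-methionine in pH 7.5 Tris buffer containing Mg2+.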
Chain of human MAT2A enzyme (P31153 whole entry): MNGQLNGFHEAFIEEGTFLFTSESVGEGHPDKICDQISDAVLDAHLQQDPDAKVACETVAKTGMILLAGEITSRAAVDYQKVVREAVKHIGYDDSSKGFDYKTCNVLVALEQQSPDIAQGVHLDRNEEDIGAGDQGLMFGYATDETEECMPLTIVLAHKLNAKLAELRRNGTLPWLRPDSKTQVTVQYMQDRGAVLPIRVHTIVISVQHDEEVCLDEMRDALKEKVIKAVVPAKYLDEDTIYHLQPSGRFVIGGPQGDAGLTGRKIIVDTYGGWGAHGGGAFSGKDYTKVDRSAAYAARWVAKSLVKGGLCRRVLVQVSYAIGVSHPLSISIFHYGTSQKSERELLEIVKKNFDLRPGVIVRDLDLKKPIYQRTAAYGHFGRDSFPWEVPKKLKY
On to `COC(=O)c1c(N)c2ccc(C(F)(F)F)nc2n(-c2ccc(C(C)O)cc2)c1=O` (centres unmarked) [Example 303, methyl 4-amino-1-(4-(1-hydroxyethyl)phenyl)-2-oxo-7-(trifluoromethyl)-1,2-dihydro-1,8-naphthyridine-3-carboxylate], for which the IC50 came to 0.92 nM.
Then `COC(=O)c1c(N)c2ccc(Br)nc2n(-c2ccc(Cl)cc2C)c1=O` [Example 287, methyl 4-amino-7-bromo-1-(4-chloro-2-methylphenyl)-2-oxo-1,2-dihydro-1,8-naphthyridine-3-carboxylate], with 1.45 nM.
Then `COC(=O)c1c(N)c2ccc(Br)nc2n(-c2cccc3c(C)nccc23)c1=O` [Example 290, methyl 4-amino-1-(1-methylisoquinolin-5-yl)-7-bromo-2-oxo-1,2-dihydro-1,8-naphthyridine-3-carboxylate], with 0.79 nM; and `C=Cc1ccc(-n2c(=O)c(C(=O)OC)c(N)c3ccc(C(F)(F)F)cc32)cc1` [Example 132, methyl 4-amino-2-oxo-7-(trifluoromethyl)-1-(4-vinylphenyl)-1,2-dihydroquinoline-3-carboxylate], with 4.91 nM; and `COC(=O)c1c(N)c2ccc(Br)nc2n(-c2ccc(C(C)O)nc2)c1=O` (centres unmarked) [Example 332, methyl 4-amino-7-bromo-1-(6-(1-hydroxyethyl)pyridin-3-yl)-2-oxo-1,2-dihydro-1,8-naphthyridine-3-carboxylate], with 2.28 nM.
As for `COC(=O)c1c(N)c2ccc(I)cc2n(-c2ccc3ccncc3c2)c1=O` [Example 242, methyl 4-amino-7-iodo-1-(isoquinolin-7-yl)-2-oxo-1,2-dihydroquinoline-3-carboxylate], the half-maximal inhibitory concentration (IC50) turned out to be 1.26 nM.
Turning to `COC(=O)c1c(N)c2ccc(C)cc2n(-c2ccc(C(C)O)cc2)c1=O` (centres unmarked) [Example 329, methyl 4-amino-1-(4-(1-hydroxyethyl)phenyl)-2-oxo-7-methyl-1,2-dihydroquinoline-3-carboxylate], the half-maximal inhibitory concentration (IC50) stood at 2.65 nM.
Then `CCOC(=O)c1c(N)c2ccc(Br)cc2n(-c2ccc3ncoc3c2)c1=O` [Example 257, ethyl 4-amino-1-(benzo[d]oxazol-6-yl)-7-bromo-2-oxo-1,2-dihydroquinoline-3-carboxylate], with 2.09 nM; and `COC(=O)c1c(N)c2ccc(Br)nc2n(-c2ccc(I)cc2)c1=O` [Example 275, methyl 4-amino-7-bromo-1-(4-iodophenyl)-2-oxo-1,2-dihydro-1,8-naphthyridine-3-carboxylate], with 0.15 nM; and `COC(=O)c1c(N)c2ccc(C(F)(F)F)cc2n(-c2ccc(OC)cc2)c1=O` [Example 25, methyl 4-amino-1-(4-methoxyphenyl)-2-oxo-7-(trifluoromethyl)-1,2-dihydro quinoline-3-carboxylate], with 0.43 nM.
With `COC(=O)c1c(N)c2ccc(C(F)(F)F)cc2n(-c2cn[nH]c2)c1=O` [Example 159, methyl 4-amino-2-oxo-1-(1H-pyrazol-4-yl)-7-(trifluoromethyl)-1,2-dihydroquinoline-3-carboxylate], the IC50 turned out to be 2.87 nM.
With `COC(=O)c1c(N)c2ccc(C(F)(F)F)cc2n(-c2ccc(OC)cc2F)c1=O` [Example 97, methyl 4-amino-1-(2-fluoro-4-methoxyphenyl)-2-oxo-7-(trifluoromethyl)-1,2-dihydroquinoline-3-carboxylate], the IC50 is 9.95 nM.
Consider `COC(=O)c1c(N)c2ccc(C(F)(F)F)cc2n(-c2ccc3c(c2)OCC3)c1=O` [Example 111, methyl 4-amino-1-(2,3-dihydro-1-benzofuran-6-yl)-2-oxo-7-(trifluoromethyl)-1,2-dihydroquinoline-3-carboxylate], for which the IC50 is 4.06 nM.
`COC(=O)c1c(N)c2ccc(Br)cc2n(-c2ccc3nccnc3c2)c1=O` [Example 220, methyl 4-amino-7-bromo-2-oxo-1-(quinoxalin-6-yl)-1,2-dihydroquinoline-3-carboxylate]: the concentration for half-maximal inhibition (IC50) was 2.07 nM.
As for `Nc1c(C(=O)OC2CC2)c(=O)n(-c2ccccc2)c2cc(C(F)(F)F)ccc12` [Example 51, cyclopropyl 4-amino-2-oxo-1-phenyl-7-(trifluoromethyl)-1,2-dihydroquinolin-3-carboxylate], the figure is 2.62 nM.
Then `COC(=O)c1c(N)c2ccc(C(F)(F)F)nc2n(-c2ccc([C@@H](C)O)cc2)c1=O` [Example 348, methyl 4-amino-(1-(4-(1R)-1-hydroxyethyl)phenyl)-7-(trifluoromethyl)-2-oxo-pyrido[2,3-b]pyridin-3-carboxylate], with 1.33 nM.
As for `COC(=O)c1c(N)c2ccc(C(F)(F)F)cc2n(-c2cccc3c[nH]nc23)c1=O` [Example 267, methyl 4-amino-1-(2H-indazol-7-yl)-2-oxo-7-(trifluoromethyl)-1,2-dihydroquinoline-3-carboxylate], the figure is 7.38 nM; as for `COC(=O)c1c(N)c2ccc(C(F)F)nc2n(-c2ccc(C(C)O)cc2)c1=O` (centres unmarked) [Example 366, methyl 4-amino-7-(difluoromethyl)-1-(4-(1-hydroxyethyl)phenyl)-2-oxo-1,2-dihydro-1,8-naphthyridine-3-carboxylate], 1 nM; as for `COC(=O)c1c(N)c2ccc(C3CC3)cc2n(-c2ccc(C(C)O)cc2)c1=O` (centres unmarked) [Example 328, methyl 4-amino-1-(4-(1-hydroxyethyl)phenyl)-2-oxo-7-cyclopropyl-1,2-dihydroquinoline-3-carboxylate], 2.59 nM.
In the case of `COC(=O)c1c(N)c2ccc(Br)nc2n(-c2cnc(Cl)cc2C)c1=O` [Example 296, methyl 4-amino-7-bromo-1-(6-chloro-4-methylpyridin-3-yl)-2-oxo-1,2-dihydro-1,8-naphthyridine-3-carboxylate], the IC50 was determined as 2 nM.
Then `COC(=O)c1c(N)c2ccc(Cl)cc2n(-c2ccc(N)cc2)c1=O` [Example 322, methyl 4-amino-7-chloro-1-(4-aminophenyl)-2-oxo-1,2-dihydroquinoline-3-carboxylate], with 1.84 nM; and `COC(=O)c1c(N)c2ccc(Br)cc2n(-c2cccc3nccn23)c1=O` [Example 195, methyl 4-amino-7-bromo-1-(imidazo(3,2-a)pyridin-5-yl)-2-oxo-1,2-dihydro quinoline-3-carboxylate], with 4.91 nM; and `COC(=O)c1c(N)c2ccc(C(F)(F)F)cc2n(-c2ccccc2Cl)c1=O` [Example 69, methyl 4-amino-1-(2-chlorophenyl)-2-oxo-7-(trifluoromethyl)-1,2-dihydro quinoline-3-carboxylate], with 6.39 nM.
Then `COC(=O)c1c(N)c2ccc(C(F)(F)F)cc2n(-c2cccc(CO)c2)c1=O` [Example 21, methyl 4-amino-1-(3-(hydroxymethyl)phenyl)-2-oxo-7-(trifluoromethyl)-1,2-dihydroquinoline-3-carboxylate], with 6.58 nM; and `COC(=O)c1c(N)c2ccc(C(F)(F)F)cc2n(-c2ccc(C)c(N)c2)c1=O` [Example 253, methyl 4-amino-1-(3-amino-4-methylphenyl)-2-oxo-7-(trifluoromethyl)-1,2-dihydroquinoline-3-carboxylate], with 1.76 nM; and `Nc1c(C(=O)OC2CC2)c(=O)n(-c2ccccc2)c2cc(I)ccc12` [Example 50, cyclopropyl 4-amino-7-iodo-2-oxo-1-phenyl-1,2-dihydroquinolin-3-carboxylate], with 4.57 nM.
As for `COC(=O)c1c(N)c2ccc(C(F)(F)F)cc2n(-c2ccc(Cl)cc2C)c1=O` [Example 151, methyl 4-amino-1-(4-chloro-2-methylphenyl)-2-oxo-7-(trifluoromethyl)-1,2-dihydroquinoline-3-carboxylate], the figure is 2.86 nM.
`Cc1ccccc1-n1c(=O)c(C(=O)OC2CC2)c(N)c2ccc(I)cc21` [Example 52, cyclopropyl 4-amino-7-iodo-1-(2-methylphenyl)-2-oxo-1,2-dihydroquinolin-3-carboxylate]: the IC50 worked out at 2.38 nM.
For `COC(=O)c1c(N)c2ccc(C(F)(F)F)cc2n(-c2ccc(C(C)O)c(F)c2)c1=O` (centres unmarked) [Example 158, methyl 4-amino-1-(3-fluoro-4-(1-hydroxyethyl)phenyl)-2-oxo-7-(trifluoromethyl)-1,2-dihydroquinoline-3-carboxylate], the IC50 turned out to be 3.83 nM.
Turning to `COC(=O)c1c(N)c2ccc(Br)cc2n(-c2ccc(N)c3cnccc23)c1=O` [Example 178, methyl 4-amino-1-(8-aminoisoquinolin-5-yl)-7-bromo-2-oxo-1,2-dihydroquinoline-3-carboxylate], the half-maximal inhibitory concentration (IC50) stood at 2.59 nM.
Then `COC(=O)c1c(N)c2ccc(Br)c(F)c2n(-c2ccc(N)cc2)c1=O` [Example 338, methyl 4-amino-1-(4-aminophenyl)-7-bromo-8-fluoro-2-oxo-1,2-dihydroquinoline-3-carboxylate], with 1.45 nM.
Then `COC(=O)c1c(N)c2ccc(Br)nc2n(-c2ccc(Cl)nc2C)c1=O` [Example 248, methyl 4-amino-7-bromo-1-(6-chloro-2-methylpyridin-3-yl)-2-oxo-1,2-dihydro-1,8-naphthyridine-3-carboxylate], with 1.69 nM; and `COC(=O)c1c(N)c2ccc(C(F)(F)F)nc2n(-c2ccc3nccn3c2)c1=O` [Example 309, methyl 4-amino-1-(imidazo[3,2-a]pyridin-6-yl)-2-oxo-7-(trifluoromethyl)-1,2-dihydro-1,8-naphthyridine-3-carboxylate], with 2.02 nM.
As for `COC(=O)c1c(N)c2ccc(C(F)(F)F)cc2n(-c2ccc3ccoc3c2)c1=O` [Example 187, methyl 4-amino-1-(1-benzofuran-6-yl)-2-oxo-7-(trifluoromethyl)-1,2-dihydroquinoline-3-carboxylate], the figure is 0.76 nM; as for `COC(=O)c1c(N)c2ccc(C(F)(F)F)cc2n(-c2ccc3ccncc3c2)c1=O` [Example 224, methyl 4-amino-1-(isoquinolin-7-yl)-2-oxo-7-(trifluoromethyl)-1,2-dihydroquinoline-3-carboxylate], 2.81 nM.
